The compounds below were run on VCaP cells (assay: Cytotoxicity assessment (Cell-titer-glo cell viability), VCaP). Details: read-out: VCaP (CC50); VCaP cells, 6 days of treatment, Cell-titer-glo, vs DMSO.

Q: `CC1(C)C(NC(=O)c2ccc(N3CC4CN(CC5CCN(C(=O)CNc6ccc7nnn(C8CCC(=O)NC8=O)c(=O)c7c6)CC5)CC4C3)cc2)C(C)(C)C1Oc1ccc(C#N)c(Cl)c1` (stereo not drawn) [Example 138, N-((1r,3r)-3-(3-chloro-4-cyanophenoxy)-2,2,4,4-tetramethylcyclobutyl)-4-(5-((1-((3-(2,6-dioxopiperidin-3-yl)-4-oxo-3,4-dihydrobenzo[d][1,2,3]triazin-6-yl)glycyl)piperidin-4-yl)methyl)hexahydropyrrolo[3,4-c]pyrrol-2(1H)-yl)benzamide] was tested. Which CC50 did it give?
A: 63.7 nM

Q: With `CC1(C)C(NC(=O)c2ccc(-c3cnn(C4CCN(CC5CCN(C(=O)COc6ccc7nnn(C8CCC(=O)NC8=O)c(=O)c7c6)CC5)CC4)c3)cc2)C(C)(C)C1Oc1ccc(C#N)c(Cl)c1` (stereo not drawn) [Example 113, N-((1r,3r)-3-(3-chloro-4-cyanophenoxy)-2,2,4,4-tetramethylcyclobutyl)-4-(1-(1-((1-(2-((3-(2,6-dioxopiperidin-3-yl)-4-oxo-3,4-dihydrobenzo[d][1,2,3]triazin-6-yl)oxy)acetyl)piperidin-4-yl)methyl)piperidin-4-yl)-1H-pyrazol-4-yl)benzamide] as the compound, how does the CC50 read?
A: 30 nM

Q: With `CC1(C)C(NC(=O)c2ccc(C#CCC3CCN(CC4CCN(C(=O)COc5ccc6nnn(C7CCC(=O)NC7=O)c(=O)c6c5)CC4)CC3)cc2)C(C)(C)C1Oc1ccc(C#N)c(Cl)c1` (stereo not drawn) [Example 119, N-((1r,3r)-3-(3-chloro-4-cyanophenoxy)-2,2,4,4-tetramethylcyclobutyl)-4-(3-(1-((1-(2-((3-(2,6-dioxopiperidin-3-yl)-4-oxo-3,4-dihydrobenzo[d][1,2,3]triazin-6-yl)oxy)acetyl)piperidin-4-yl)methyl)piperidin-4-yl)prop-1-yn-1-yl)benzamide] as the compound, how does the CC50 read?
A: 36 nM

Q: Which CC50 does the source give for `CC1(C)C(NC(=O)c2ccc(C#CC3CCN(c4ccc5nnn(C6CCC(=O)NC6=O)c(=O)c5c4)CC3)cc2)C(C)(C)C1Oc1ccc(C#N)c(Cl)c1` (stereo not drawn) [Example 142, N-((1r,3r)-3-(3-chloro-4-cyanophenoxy)-2,2,4,4-tetramethylcyclobutyl)-4-((1-(3-(2,6-dioxopiperidin-3-yl)-4-oxo-3,4-dihydrobenzo[d][1,2,3]triazin-6-yl)piperidin-4-yl)ethynyl)benzamide] here?
A: 7.1 nM

Q: How did the CC50 turn out when `CC1(C)C(NC(=O)c2ccc(-n3cc(CN4CCN(C(=O)C5CCN(c6ccc7nnn(C8CCC(=O)NC8=O)c(=O)c7c6)CC5)CC4)nn3)cc2)C(C)(C)C1Oc1ccc(C#N)c(Cl)c1` (stereo not drawn) [Example 121, N-((1r,3r)-3-(3-chloro-4-cyanophenoxy)-2,2,4,4-tetramethylcyclobutyl)-4-(4-((4-(1-(3-(2,6-dioxopiperidin-3-yl)-4-oxo-3,4-dihydrobenzo[d][1,2,3]triazin-6-yl)piperidine-4-carbonyl)piperazin-1-yl)methyl)-1H-1,2,3-triazol-1-yl)benzamide] was run?
A: 18 nM

Q: `CC1(C)C(NC(=O)c2ccc(-c3cnn(C4CCN(CC5CCN(C(=O)CNc6ccc7nnn(C8CCC(=O)NC8=O)c(=O)c7c6)CC5)CC4)c3)nc2)C(C)(C)C1Oc1ccc(C#N)c(Cl)c1` (stereo not drawn) [Example 125, N-((1r,3r)-3-(3-chloro-4-cyanophenoxy)-2,2,4,4-tetramethylcyclobutyl)-6-(1-(1-((1-((3-(2,6-dioxopiperidin-3-yl)-4-oxo-3,4-dihydrobenzo[d][1,2,3]triazin-6-yl)glycyl)piperidin-4-yl)methyl)piperidin-4-yl)-1H-pyrazol-4-yl)nicotinamide] was tested. Which CC50 did it give?
A: 15.5 nM

Q: With `CC1(C)C(NC(=O)c2ccc(-n3cc(CCOCCOCCNC(=O)CNc4ccc5nnn(C6CCC(=O)NC6=O)c(=O)c5c4)nn3)cc2)C(C)(C)C1Oc1ccc(C#N)c(Cl)c1` (stereo not drawn) [Example 159, N-((1r,3r)-3-(3-chloro-4-cyanophenoxy)-2,2,4,4-tetramethylcyclobutyl)-4-(4-(2-(2-(2-(2-((3-(2,6-dioxopiperidin-3-yl)-4-oxo-3,4-dihydrobenzo[d][1,2,3]triazin-6-yl)amino)acetamido)ethoxy)ethoxy)ethyl)-1H-1,2,3-triazol-1-yl)benzamide] as the compound, how does the CC50 read?
A: 109 nM

Q: For `CC1(C)C(NC(=O)c2ccc(C#CC3CCN(CC4CCN(C(=O)CNc5ccc6nnn(C7CCC(=O)NC7=O)c(=O)c6c5)CC4)CC3)cc2)C(C)(C)C1Oc1ccc(C#N)c(Cl)c1` (stereo not drawn) [Example 98, N-((1r,3r)-3-(3-chloro-4-cyanophenoxy)-2,2,4,4-tetramethylcyclobutyl)-4-((1-((1-((3-(2,6-dioxopiperidin-3-yl)-4-oxo-3,4-dihydrobenzo[d][1,2,3]triazin-6-yl)glycyl)piperidin-4-yl)methyl)piperidin-4-yl)ethynyl)benzamide], which CC50 is on record?
A: 6.72 nM

Q: For `CC1(C)C(NC(=O)c2ccc(N3CC4CN(CC5CCN(C(=O)COc6ccc7nnn(C8CCC(=O)NC8=O)c(=O)c7c6)CC5)CC4C3)cc2)C(C)(C)C1Oc1ccc(C#N)c(Cl)c1` (stereo not drawn) [Example 137, N-((1r,3r)-3-(3-chloro-4-cyanophenoxy)-2,2,4,4-tetramethylcyclobutyl)-4-(5-((1-(2-((3-(2,6-dioxopiperidin-3-yl)-4-oxo-3,4-dihydrobenzo[d][1,2,3]triazin-6-yl)oxy)acetyl)piperidin-4-yl)methyl)hexahydropyrrolo[3,4-c]pyrrol-2(1H)-yl)benzamide], which CC50 is on record?
A: 94 nM

Q: How did the CC50 turn out when `CC1(C)C(NC(=O)c2ccc(N3CC4CN(C(=O)CNc5ccc6nnn(C7CCC(=O)NC7=O)c(=O)c6c5)CC4C3)cc2)C(C)(C)C1Oc1ccc(C#N)c(Cl)c1` (stereo not drawn) [Example 136, N-((1r,3r)-3-(3-chloro-4-cyanophenoxy)-2,2,4,4-tetramethylcyclobutyl)-4-(5-((3-(2,6-dioxopiperidin-3-yl)-4-oxo-3,4-dihydrobenzo[d][1,2,3]triazin-6-yl)glycyl)hexahydropyrrolo[3,4-c]pyrrol-2(1H)-yl)benzamide] was run?
A: 67.7 nM

Q: `CC1(C)[C@H](NC(=O)c2cnc(N3CCN(CC4CCN(C(=O)C5CCN(c6ccc7nnn(C8CCC(=O)NC8=O)c(=O)c7c6)CC5)CC4)CC3)nc2)C(C)(C)[C@H]1Oc1ccc(C#N)c(Cl)c1` (stereo partly drawn) [Example 145, N-((1r,3r)-3-(3-chloro-4-cyanophenoxy)-2,2,4,4-tetramethylcyclobutyl)-2-(4-((1-(1-(3-(2,6-dioxopiperidin-3-yl)-4-oxo-3,4-dihydrobenzo[d][1,2,3]triazin-6-yl)piperidine-4-carbonyl)piperidin-4-yl)methyl)piperazin-1-yl)pyrimidine-5-carboxamide] was tested. Which CC50 did it give?
A: ~10 nM

Q: With `CC1(C)[C@H](NC(=O)c2ccc(N3CCN(CCCc4cn(-c5ccc6nnn(C7CCC(=O)NC7=O)c(=O)c6c5)nn4)CC3)cc2)C(C)(C)[C@H]1Oc1ccc(C#N)c(Cl)c1` (stereo partly drawn) [Example 134, N-((1r,3r)-3-(3-chloro-4-cyanophenoxy)-2,2,4,4-tetramethylcyclobutyl)-4-(4-(3-(1-(3-(2,6-dioxopiperidin-3-yl)-4-oxo-3,4-dihydrobenzo[d][1,2,3]triazin-6-yl)-1H-1,2,3-triazol-4-yl)propyl)piperazin-1-yl)benzamide] as the compound, how does the CC50 read?
A: 64.5 nM

Q: With `CC1(C)C(NC(=O)c2ccc(C#CC3CCN(C(=O)C4CN(c5ccc6nnn(C7CCC(=O)NC7=O)c(=O)c6c5)C4)CC3)cc2)C(C)(C)C1Oc1ccc(C#N)c(Cl)c1` (stereo not drawn) [Example 95, N-((1r,3r)-3-(3-chloro-4-cyanophenoxy)-2,2,4,4-tetramethylcyclobutyl)-4-((1-(1-(3-(2,6-dioxopiperidin-3-yl)-4-oxo-3,4-dihydrobenzo[d][1,2,3]triazin-6-yl)azetidine-3-carbonyl)piperidin-4-yl)ethynyl)benzamide] as the compound, how does the CC50 read?
A: 4.5 nM

Q: Which CC50 does the source give for `CC1(C)C(NC(=O)c2ccc(CCN3CCN(CC4CCN(C(=O)C5CN(c6ccc7nnn(C8CCC(=O)NC8=O)c(=O)c7c6)C5)CC4)CC3)cc2)C(C)(C)C1Oc1ccc(C#N)c(Cl)c1` (stereo not drawn) [Example 109, N-((1r,3r)-3-(3-chloro-4-cyanophenoxy)-2,2,4,4-tetramethylcyclobutyl)-4-(2-(4-((1-(1-(3-(2,6-dioxopiperidin-3-yl)-4-oxo-3,4-dihydrobenzo[d][1,2,3]triazin-6-yl)azetidine-3-carbonyl)piperidin-4-yl)methyl)piperazin-1-yl)ethyl)benzamide] here?
A: 13 nM

Q: With `CC1(C)C(NC(=O)c2ccc(-n3cc(CNC(=O)CNc4ccc5nnn(C6CCC(=O)NC6=O)c(=O)c5c4)nn3)cc2)C(C)(C)C1Oc1ccc(C#N)c(Cl)c1` (stereo not drawn) [Example 152, N-((1r,3r)-3-(3-chloro-4-cyanophenoxy)-2,2,4,4-tetramethylcyclobutyl)-4-(4-((2-((3-(2,6-dioxopiperidin-3-yl)-4-oxo-3,4-dihydrobenzo[d][1,2,3]triazin-6-yl)amino)acetamido)methyl)-1H-1,2,3-triazol-1-yl)benzamide] as the compound, how does the CC50 read?
A: 233 nM

Q: How did the CC50 turn out when `CC1(C)C(NC(=O)c2ccc(-n3cc(CC4CCN(C(=O)C5CCN(c6ccc7nnn(C8CCC(=O)NC8=O)c(=O)c7c6)CC5)CC4)nn3)cc2)C(C)(C)C1Oc1ccc(C#N)c(Cl)c1` (stereo not drawn) [Example 104, N-((1r,3r)-3-(3-chloro-4-cyanophenoxy)-2,2,4,4-tetramethylcyclobutyl)-4-(4-((1-(1-(3-(2,6-dioxopiperidin-3-yl)-4-oxo-3,4-dihydrobenzo[d][1,2,3]triazin-6-yl)piperidine-4-carbonyl)piperidin-4-yl)methyl)-1H-1,2,3-triazol-1-yl)benzamide] was run?
A: 16.9 nM

Q: `CC1(C)C(NC(=O)c2ccc(CCN3CCN(CC4CCN(C(=O)C5CCN(c6ccc7nnn(C8CCC(=O)NC8=O)c(=O)c7c6)CC5)CC4)CC3)cc2)C(C)(C)C1Oc1ccc(C#N)c(Cl)c1` (stereo not drawn) [Example 108, N-((1r,3r)-3-(3-chloro-4-cyanophenoxy)-2,2,4,4-tetramethylcyclobutyl)-4-(2-(4-((1-(1-(3-(2,6-dioxopiperidin-3-yl)-4-oxo-3,4-dihydrobenzo[d][1,2,3]triazin-6-yl)piperidine-4-carbonyl)piperidin-4-yl)methyl)piperazin-1-yl)ethyl)benzamide] was tested. Which CC50 did it give?
A: 18.8 nM

Q: Which CC50 does the source give for `CC1(C)C(NC(=O)c2ccc(-n3cc(CNC(=O)C4CCN(c5ccc6nnn(C7CCC(=O)NC7=O)c(=O)c6c5)CC4)nn3)cc2)C(C)(C)C1Oc1ccc(C#N)c(Cl)c1` (stereo not drawn) [Example 150, N-((1-(4-(((1r,3r)-3-(3-chloro-4-cyanophenoxy)-2,2,4,4-tetramethylcyclobutyl)carbamoyl)phenyl)-1H-1,2,3-triazol-4-yl)methyl)-1-(3-(2,6-dioxopiperidin-3-yl)-4-oxo-3,4-dihydrobenzo[d][1,2,3]triazin-6-yl)piperidine-4-carboxamide] here?
A: 24.4 nM

— patent US20240018123A1, “COMPOUND FOR INHIBITING OR DISINTEGRATING ANDROGEN RECEPTOR, AND PHARMACEUTICAL USE THEREOF” (KOREA RESEARCH INSTITUTE OF CHEMICAL TECHNOLOGY, priority 2020, published 2024)
